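Results reflect a 48-hour exposure of cells in 96-well plates to compound at five concentrations. Definition used: TGI = concentration required for complete inhibition of growth.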
What was measured:
Assay in all cases: NCI anticancer screen, dose series, 48 h
NCI-H460 lung = test system: NCI-H460 lung
UACC-257 melanoma = test system: UACC-257 melanoma
DMS 114 small cell lung = test system: DMS 114 small cell lung
A549 NSCLC = test system: A549 NSCLC
NCI-H23 lung = test system: NCI-H23 lung
K-562 leukemia = test system: K-562 leukemia
SNB-19 CNS = test system: SNB-19 CNS
MALME-3M melanoma = test system: MALME-3M melanoma
M14 melanoma = test system: M14 melanoma
RPMI-8226 leukemia = test system: RPMI-8226 leukemia
M19-MEL melanoma = test system: M19-MEL melanoma
SW-620 colon = test system: SW-620 colon
SK-MEL-28 melanoma = test system: SK-MEL-28 melanoma
TK-10 renal = test system: TK-10 renal
LXFL 529 NSCLC = test system: LXFL 529 NSCLC
DMS 273 small cell lung = test system: DMS 273 small cell lung
SNB-78 CNS = test system: SNB-78 CNS
LOX IMVI melanoma = test system: LOX IMVI melanoma
HCC-2998 colon = test system: HCC-2998 colon
OVCAR-3 ovarian = test system: OVCAR-3 ovarian
MOLT-4 leukemia = test system: MOLT-4 leukemia
NCI-H226 lung = test system: NCI-H226 lung
DLD-1 colon = test system: DLD-1 colon
SK-MEL-2 melanoma = test system: SK-MEL-2 melanoma
OVCAR-4 ovarian = test system: OVCAR-4 ovarian
COLO 205 colon = test system: COLO 205 colon
KM12 colon = test system: KM12 colon
CCRF-CEM leukemia = test system: CCRF-CEM leukemia
HOP-18 NSCLC = test system: HOP-18 NSCLC
UACC-62 melanoma = test system: UACC-62 melanoma
SK-MEL-5 melanoma = test system: SK-MEL-5 melanoma
HL-60(TB) leukemia = test system: HL-60(TB) leukemia
SK-OV-3 ovarian = test system: SK-OV-3 ovarian
IGROV1 ovarian = test system: IGROV1 ovarian
A498 renal = test system: A498 renal
OVCAR-8 ovarian = test system: OVCAR-8 ovarian
NCI-H522 lung = test system: NCI-H522 lung
CAKI-1 renal = test system: CAKI-1 renal
786-0 renal = test system: 786-0 renal
HOP-92 NSCLC = test system: HOP-92 NSCLC
HCT-15 colon = test system: HCT-15 colon
EKVX NSCLC = test system: EKVX NSCLC
HT29 colon = test system: HT29 colon
SN12C renal = test system: SN12C renal
HCT-116 colon = test system: HCT-116 colon
KM20L2 colon = test system: KM20L2 colon
SNB-75 CNS = test system: SNB-75 CNS
U251 CNS = test system: U251 CNS
SF-268 CNS = test system: SF-268 CNS
OVCAR-5 ovarian = test system: OVCAR-5 ovarian
RXF 393 renal = test system: RXF 393 renal
UO-31 renal = test system: UO-31 renal
SF-295 CNS = test system: SF-295 CNS
SR leukemia = test system: SR leukemia
ACHN renal = test system: ACHN renal
HOP-62 NSCLC = test system: HOP-62 NSCLC
XF 498 CNS = test system: XF 498 CNS
SF-539 CNS = test system: SF-539 CNS

Measured: TGI

O=c1[nH]c2ccccc2nc1/C=C(\O)c1ccccc1O
> 100 µM: NCI-H460 lung | UACC-257 melanoma | DMS 114 small cell lung | A549 NSCLC | NCI-H23 lung | K-562 leukemia | SNB-19 CNS | MALME-3M melanoma | M14 melanoma | RPMI-8226 leukemia | M19-MEL melanoma | SW-620 colon | SK-MEL-28 melanoma | TK-10 renal | LXFL 529 NSCLC | DMS 273 small cell lung | SNB-78 CNS | LOX IMVI melanoma | HCC-2998 colon | OVCAR-3 ovarian | MOLT-4 leukemia | NCI-H226 lung | DLD-1 colon | SK-MEL-2 melanoma | OVCAR-4 ovarian | COLO 205 colon | KM12 colon | CCRF-CEM leukemia | HOP-18 NSCLC | UACC-62 melanoma | SK-MEL-5 melanoma | HL-60(TB) leukemia | SK-OV-3 ovarian | IGROV1 ovarian | A498 renal | OVCAR-8 ovarian | NCI-H522 lung | CAKI-1 renal | 786-0 renal | HOP-92 NSCLC | HCT-15 colon | EKVX NSCLC | HT29 colon | SN12C renal | HCT-116 colon | KM20L2 colon | SNB-75 CNS | U251 CNS | SF-268 CNS | OVCAR-5 ovarian | RXF 393 renal | UO-31 renal | SF-295 CNS | SR leukemia | ACHN renal | HOP-62 NSCLC

O=[N+]([O-])C(/C=N/Nc1ccccc1)/C=N/Nc1ccccc1
> 100 µM: NCI-H460 lung | UACC-257 melanoma | DMS 114 small cell lung | A549 NSCLC | NCI-H23 lung | K-562 leukemia | SNB-19 CNS | MALME-3M melanoma | M14 melanoma | M19-MEL melanoma | SW-620 colon | SK-MEL-28 melanoma | TK-10 renal | LXFL 529 NSCLC | DMS 273 small cell lung | SNB-78 CNS | LOX IMVI melanoma | XF 498 CNS | SF-539 CNS | HCC-2998 colon | OVCAR-3 ovarian | MOLT-4 leukemia | NCI-H226 lung | DLD-1 colon | SK-MEL-2 melanoma | OVCAR-4 ovarian | COLO 205 colon | KM12 colon | CCRF-CEM leukemia | HOP-18 NSCLC | UACC-62 melanoma | SK-MEL-5 melanoma | HL-60(TB) leukemia | SK-OV-3 ovarian | IGROV1 ovarian | A498 renal | OVCAR-8 ovarian | NCI-H522 lung | CAKI-1 renal | 786-0 renal | HOP-92 NSCLC | HCT-15 colon | EKVX NSCLC | HT29 colon | SN12C renal | HCT-116 colon | KM20L2 colon | SNB-75 CNS | U251 CNS | SF-268 CNS | OVCAR-5 ovarian | RXF 393 renal | UO-31 renal | SF-295 CNS | ACHN renal | HOP-62 NSCLC
